Source: the CATMoS acute toxicity set (Mansouri et al. 2021)

Assay: GHS categories as the set defines them, by LD50: 1 up to 5, 2 up to 50, 3 up to 300, 4 up to 2000, 5 above 2000 mg/kg
Details: rat; in vivo; po

SMILES | GHS category
COc1ccc(C2NC(=O)CCS2)cc1OC (centres undefined) | 5
FC(F)(F)C(F)(F)C(F)(F)C(F)(F)N(C(F)(F)C(F)(F)C(F)(F)C(F)(F)F)C(F)(F)C(F)(F)C(F)(F)C(F)(F)F | 5
CCCNC(=O)c1cnc2c(C)cccn2c1=O | 3
CC=CC(=O)OC/C=C(\C)CCC=C(C)C | 5
Clc1ccc(N/C(=N/C2CCCCC2)c2ccccc2)c(Cl)c1 | 5
C=C1[C@H]2CC[C@@H]3[C@H]2C(C)(C)CCC[C@]13C | 5
CC1=CC1 | 5
OC1CCC(CN2CCC(=C3c4ccc(F)cc4Sc4ccc(C(F)(F)F)cc43)CC2)CC1 (centres undefined) | 3
C[N@+]1(CCNP(=S)(NCC[N@@+]2(C)Cc3c(ccc4c3OCO4)[C@@H]3[C@H]2c2cc4c(cc2C[C@@H]3O)OCO4)NCC[N@@+]2(C)Cc3c(ccc4c3OCO4)[C@@H]3[C@H]2c2cc4c(cc2C[C@@H]3O)OCO4)Cc2c(ccc3c2OCO3)[C@@H]2[C@H]1c1cc3c(cc1C[C@@H]2O)OCO3 | 4
CCCCCCCCCCCCCCCCCCCN | 5
CCc1ccc(CC)cc1 | 5
CO[C@H]1C=CO[C@@]2(C)Oc3c(C)c(O)c4c(c3C2=O)C2=NC3(CCN(CC(C)C)CC3)NC2=C(NC(=O)C(C)=CC=C[C@H](C)[C@H](O)[C@@H](C)[C@@H](O)[C@@H](C)[C@H](OC(C)=O)[C@@H]1C)C4=O | 5
O=C(c1ccccc1)C1CCCCC1 | 5
CCCCC(O)CCO (centres undefined) | 5
CCCCl | 5
CCCCC(CC)COC(=O)c1ccc([N+](=O)[O-])cc1 (centres undefined) | 5
C=CCN(C(C)=O)C(=O)Oc1cccc2c1OC(C)(C)O2 | 4
O=C1/C(=C2\Nc3ccccc3C2=O)Nc2ccccc21 | 5
COCCOC=C1OC2=C(C(=O)N1c1ccccn1)N(C)S(=O)(=O)c1cc(Cl)sc12 | 2
CCCCCCC(=O)OCC(CC)(COC(=O)CCCCCC)COC(=O)CCCCCC | 5
O=S(=O)(O)c1ccc2c(c1)Nc1cc3nc4ccc(S(=O)(=O)O)cc4nc3cc1N2 | 5
CC(C)OC(=O)c1cc(Cl)ccc1OC(N)=O | 5
CS(=O)(=O)c1ccc([C@@H](O)[C@@H](CO)NC(=O)C(Cl)Cl)cc1 | 5
C=C1CC[C@@]23C[C@@H]1C(C)(C)[C@@H]2C(O)C[C@H]3C (some centres undefined) | 5
CC[C@H]1OC(=O)C[C@@H](O)[C@H](C)[C@@H](O[C@@H]2O[C@H](C)[C@@H](O[C@H]3C[C@@](C)(O)[C@@H](O)[C@H](C)O3)[C@H](N(C)C)[C@H]2O)[C@@H](CC=O)C[C@@H](C)C(=O)C=CC(C)=CC1CO[C@@H]1O[C@H](C)[C@@H](O)[C@@H](OC)[C@H]1OC (some centres undefined) | 5
CN1COCN=C1N[N+](=O)[O-] | 4
CCCCCCCC1CCCC1=O (centres undefined) | 5

SMILES | GHS category
OCC(CBr)(CBr)CBr | 5
Clc1cc(Cl)ncn1 | 3
O=C(O)CCC(=O)OC1N=C(c2ccccc2)c2cc(Cl)ccc2NC1=O (centres undefined) | 5
COc1cc2nc(N3CCC(CN(C)C(=O)c4ccco4)CC3)nc(N)c2cc1OC | 4
Cc1cc(C(C)(C)C)c(O)c(C)c1CC#N | 5
CCCCCCCCCC(C)C=O (centres undefined) | 5
OCC(O)COC1CCCCC1 (centres undefined) | 5
CCCCOc1nn(-c2cccc(C(F)(F)F)c2)c2ncccc12 | 4
COC(=O)CCCC(=O)OC | 5
CCC1OC(=O)C(C)C(OC2CC(C)(OC)C(O)C(C)O2)C(C)C(OC2OC(C)CC(N(C)C)C2O)C(C)(O)CC(C)(F)C(=O)C(C)C(O)C1(C)O (centres undefined) | 5
CC(C)(C)C(O)/C=C/c1ccc2c(c1)OCO2 (centres undefined) | 5
C#CCC(O[Si](CC)(CC)CC)[Si](CC)(CC)CC (centres undefined) | 5
O=C1C[N+]([O-])=C(c2ccccc2)c2cc(Cl)ccc2N1 | 5
Oc1c(I)cc(Cl)c2cccnc12 | 5
C=C(C#N)C(=O)OCCOC | 5
C[C@]12Cc3nonc3C[C@@H]1CC[C@@H]1[C@@H]2CC[C@@]2(C)[C@H]1CC[C@]2(C)O | 5
C#C[C@]1(O)CC[C@H]2[C@@H]3CCC4=CC(=O)CC[C@]4(C)[C@H]3CC[C@@]21C | 5
O=c1c2ccccc2c(=O)c2c1cc(Cl)c1[nH]c3c([nH]c12)c(Cl)cc1c(=O)c2ccccc2c(=O)c13 | 5
CCOC(=O)c1nn(-c2ccc(OC)cc2)c2c1CCN(c1ccc(N3CCCCC3=O)cc1)C2=O | 5
COC(=O)c1c(C)nc(C)c(C(=O)O)c1-c1cc([N+](=O)[O-])ccc1F | 5
COc1ccccc1N=NC(C(C)=O)C(=O)Nc1ccc2[nH]c(=O)[nH]c2c1 (centres undefined) | 5
CN1C(=O)c2ccc3c4ccc5c6c(ccc(c7ccc(c2c37)C1=O)c64)C(=O)N(C)C5=O | 5
CCC1CCC(=O)O1 (centres undefined) | 5
CC(=O)Oc1c(I)cc(I)cc1C(=O)Nc1ccc(Cl)cc1 | 5
CCCCCCCCCCCCCc1cccc(O)c1C(=O)O | 4
COc1cccc(OC)c1C(=O)NC(=O)Nc1c(F)cccc1F | 4
CCOC(=O)CCn1c(=N)oc2ccccc21 | 4
